{
  "source": "patent EP2185126B1",
  "about": "“USE OF TROXERUTIN TO QUENCH THE FLUORESCENCE OF DISODIUM PHENYL DIBENZIMIDAZOLE TETRASULFONATE” (Symrise AG, priority 2007, dated 2007)",
  "key": {"[1]": {"experiment": "Colour and colour stability of emulsion on storage", "assay_type": "physicochemical", "conditions": "emulsion prepared with the substance"}, "Solubility in water": {"experiment": "Solubility in water", "assay_type": "physicochemical"}},
  "data": [
    {"smiles": "COc1ccc([C@@H]2CC(=O)c3c(O)cc(O[C@@H]4O[C@H](CO[C@@H]5O[C@@H](C)[C@H](O)[C@@H](O)[C@H]5O)[C@@H](O)[C@H](O)[C@H]4O)cc3O2)cc1O", "note": "[hesperidin]", "values": [
      {"measurement": "colour / colour stability of emulsion", "setting": "[1]", "value": "less susceptible to colouration problems than other flavone derivatives"},
      {"measurement": "solubility in water", "setting": "Solubility in water", "value": "poorly soluble in water"}
    ]},
    {"smiles": "C[C@@H]1O[C@@H](O[C@H]2[C@H](Oc3cc(O)c4c(c3)O[C@H](c3ccc(O)cc3)CC4=O)O[C@H](CO)[C@@H](O)[C@@H]2O)[C@H](O)[C@H](O)[C@H]1O", "note": "[naringin]", "values": [
      {"measurement": "colour / colour stability of emulsion", "setting": "[1]", "value": "less susceptible to colouration problems than other flavone derivatives"},
      {"measurement": "solubility in water", "setting": "Solubility in water", "value": "poorly soluble in water"}
    ]},
    {"smiles": "O=c1c(O)c(-c2ccc(O)c(O)c2)oc2cc(O)cc(O)c12", "note": "[quercetin]", "values": [
      {"measurement": "colour / colour stability of emulsion", "setting": "[1]", "value": "deeply yellow in colour"}
    ]},
    {"smiles": "C[C@@H]1O[C@@H](OC[C@H]2O[C@@H](Oc3c(-c4ccc(O)c(O)c4)oc4cc(O)cc(O)c4c3=O)[C@H](O)[C@@H](O)[C@@H]2O)[C@H](O)[C@H](O)[C@H]1O", "note": "[rutin]", "values": [
      {"measurement": "colour / colour stability of emulsion", "setting": "[1]", "value": "beige in colour and on storage turns dark brown"}
    ]},
    {"smiles": "C[C@@H]1O[C@@H](OC[C@H]2O[C@@H](Oc3c(-c4ccc(OCCO)c(OCCO)c4)oc4cc(OCCO)cc(O)c4c3=O)[C@H](O)[C@@H](O)[C@@H]2O)[C@H](O)[C@H](O)[C@H]1O", "note": "[troxerutin, 7,3',4'-tris[O-(2-hydroxyethyl)]rutin]", "values": [
      {"measurement": "colour / colour stability of emulsion", "setting": "[1]", "value": "long term colour stability"},
      {"measurement": "solubility in water", "setting": "Solubility in water", "value": "ease of solubility in water"}
    ]}
  ]
}
